Experimental data reported in PubChem BioAssay AID2042 (NMMLSC, 2009).
Activity calls are given as the source filed them.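 The calls were made as follows: active = EC50 at most 30 µM plus a dose-response curve spanning at least 25% response; inactive = the rest.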

Target: GTPase HRas (Homo sapiens) (UniProt P01112)
Assay: mutant Ras fluorescent GTP loading blockade – biochemical, oxadiazole analogs, activated mutant, multiplex flow cytometry, SAR follow-up (AID 2042)
Conditions: GST-Ras beads, Bodipy-FL-GTP binding; for Ki: measured here: Ki calculated from EC50

Chain of GTPase HRas (Homo sapiens) (P01112 whole entry, looked up): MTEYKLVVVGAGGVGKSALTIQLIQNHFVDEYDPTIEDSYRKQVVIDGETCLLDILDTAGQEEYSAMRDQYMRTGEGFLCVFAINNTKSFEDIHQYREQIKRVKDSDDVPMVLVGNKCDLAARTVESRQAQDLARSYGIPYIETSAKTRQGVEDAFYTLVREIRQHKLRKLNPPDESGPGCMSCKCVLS

EC50 | Ki [µM] | Structure (SMILES)
> 30 µM (inactive) |  | COc1ccc(-c2noc(CCC(=O)N3CCN(c4cccc(Cl)c4)CC3)n2)cc1
> 30 µM (inactive) |  | COc1ccc(-c2cccc(CCC(=O)N3CCN(c4cc(C)ccc4C)CC3)c2)cc1
> 30 µM (inactive) |  | Cc1ccc(C)c(N2CCN(C(=O)CCc3nc(-c4cccc(C(F)(F)F)c4)no3)CC2)c1
> 30 µM (inactive) |  | Cc1ccc(C)c(N2CCN(C(=O)CCc3nc(-c4cccc(Cl)c4)no3)CC2)c1
> 30 µM (inactive) |  | Cc1ccc(C)c(N2CCN(C(=O)CCc3nc(-c4ccc(F)cc4)no3)CC2)c1
> 30 µM (inactive) |  | Cc1ccc(C)c(N2CCN(C(=O)CCc3nc(-c4ccccc4Cl)no3)CC2)c1
> 30 µM (inactive) |  | COc1ccc(-c2noc(CCC(=O)N3CCN(c4ccc(OC)cc4)CC3)n2)cc1
> 30 µM (inactive) |  | COc1ccc(-c2noc(CCC(=O)N3CCN(c4ccccc4)CC3)n2)cc1
> 30 µM (inactive) |  | Cc1ccc(C)c(N2CCN(C(=O)CCc3nc(-c4ccc(Cl)cc4)no3)CC2)c1
inactive | 0.28 | COc1cccc(-c2noc(CCC(=O)N3CCN(c4cc(C)ccc4C)CC3)n2)c1
> 30 µM (inactive) |  | COc1ccc(-c2cc(CCC(=O)N3CCN(c4cc(C)ccc4C)CC3)on2)cc1
> 30 µM (inactive) |  | Cc1ccc(-c2noc(CCC(=O)N3CCN(c4cc(C)ccc4C)CC3)n2)cc1
> 30 µM (inactive) |  | COc1ccc(-c2ccc(CCC(=O)N3CCN(c4cc(C)ccc4C)CC3)[nH]2)cc1
> 30 µM (inactive) |  | COc1ccc(-c2noc(CCC(=O)N3CCN(c4ccc(Cl)cc4)CC3)n2)cc1
> 30 µM (inactive) |  | COc1ccc(-c2noc(CCC(=O)N3CCN(c4cccc(C)c4)CC3)n2)cc1
> 30 µM (inactive) |  | Cc1ccc(C)c(N2CCN(C(=O)CCc3nc(-c4cccc(F)c4)no3)CC2)c1
> 30 µM (inactive) |  | Cc1ccc(C)c(N2CCN(C(=O)CCc3nc(-c4ccc(Br)cc4)no3)CC2)c1
inactive | 0.12 | COc1ccc(-c2noc(CCC(=O)N3CCN(c4cc(C)ccc4C)CC3)n2)cc1
> 30 µM (inactive) |  | COc1ccc(-c2noc(CCC(=O)N3CCC(c4cc(C)ccc4C)CC3)n2)cc1
> 30 µM (inactive) |  | COc1ccc(-c2ccc(CCC(=O)N3CCN(c4cc(C)ccc4C)CC3)s2)cc1
> 30 µM (inactive) |  | Cc1ccc(C)c(N2CCN(C(=O)CCc3nc(-c4ccccc4C)no3)CC2)c1
> 30 µM (inactive) |  | COc1ccc(-c2noc(CCC(=O)N3CCN(c4ccc(F)cc4)CC3)n2)cc1
inactive | 0.06 | COc1ccc(-c2noc(CCC(=O)N3CCN(c4ccccc4F)CC3)n2)cc1
> 30 µM (inactive) |  | COc1ccc(-c2noc(CCC(=O)N3CCN(c4ccc(C)cc4)CC3)n2)cc1
> 30 µM (inactive) |  | COc1ccc(-c2noc(CC(=O)N3CCN(c4cc(C)ccc4C)CC3)n2)cc1
> 30 µM (inactive) |  | Cc1ccc(C)c(N2CCN(C(=O)CCc3nc(-c4ccccc4Br)no3)CC2)c1

EC50 | Ki [µM] | Structure (SMILES)
> 30 µM (inactive) |  | Cc1cccc(-c2noc(CCC(=O)N3CCN(c4cc(C)ccc4C)CC3)n2)c1
> 30 µM (inactive) |  | Cc1ccc(C)c(N2CCN(C(=O)CCc3nc(-c4ccc(N(C)C)cc4)no3)CC2)c1
> 30 µM (inactive) |  | COc1ccc(-c2noc(CCC(=O)N3CCN(c4ccccc4OC)CC3)n2)cc1
> 30 µM (inactive) |  | COc1ccc(-c2noc(CCC(=O)N3CCN(c4cccc(F)c4)CC3)n2)cc1
> 30 µM (inactive) |  | Cc1ccc(C)c(N2CCN(C(=O)CCc3nc(-c4ccc(C(F)(F)F)cc4)no3)CC2)c1
> 30 µM (inactive) |  | COc1ccc(-c2noc(CCC(=O)N3CCN(c4ccccc4C(F)(F)F)CC3)n2)cc1
> 30 µM (inactive) |  | COc1ccc(-c2noc(CCC(=O)N3CCN(c4cccc(C)c4C)CC3)n2)cc1
> 30 µM (inactive) |  | COc1ccc(-c2noc(CCC(=O)N3CCN(c4ccc(C(F)(F)F)cc4)CC3)n2)cc1
> 30 µM (inactive) |  | COc1ccc(-c2noc(CCCC(=O)N3CCN(c4cc(C)ccc4C)CC3)n2)cc1
> 30 µM (inactive) |  | COc1ccc(-c2noc(CCC(=O)N3CCN(c4cccc(C(F)(F)F)c4)CC3)n2)cc1
> 30 µM (inactive) |  | COc1ccc(-c2noc(CCC(=O)N3CCN(c4cccc(OC)c4)CC3)n2)cc1
> 30 µM (inactive) |  | Cc1ccc(C)c(N2CCN(C(=O)CCc3nc(-c4cccc(Br)c4)no3)CC2)c1
> 30 µM (inactive) |  | Cc1ccc(C)c(N2CCN(C(=O)CCc3nc(-c4ccccc4F)no3)CC2)c1
> 30 µM (inactive) |  | COc1ccc(-c2noc(CCCCC(=O)N3CCN(c4cc(C)ccc4C)CC3)n2)cc1
> 30 µM (inactive) |  | COc1ccccc1-c1noc(CCC(=O)N2CCN(c3cc(C)ccc3C)CC2)n1
> 30 µM (inactive) |  | COc1ccc(-c2noc(CCC(=O)N3CCN(c4ccccc4C)CC3)n2)cc1
> 30 µM (inactive) |  | COc1ccc(-c2noc(CCC(=O)N3CCN(c4ccc(Br)cc4)CC3)n2)cc1
> 30 µM (inactive) |  | COc1ccc(-c2noc(CCC(=O)N3CCN(c4ccccc4Cl)CC3)n2)cc1
> 30 µM (inactive) |  | COc1ccc(-c2cc(CCC(=O)N3CCN(c4cc(C)ccc4C)CC3)[nH]n2)cc1
> 30 µM (inactive) |  | COc1ccc(-c2noc(CCC(=O)N3CCN(c4ccccc4Br)CC3)n2)cc1
> 30 µM (inactive) |  | COc1ccc(-c2noc(CCC(=O)N3CCN(c4cccc(Br)c4)CC3)n2)cc1
> 30 µM (inactive) |  | COc1ccc(-c2coc(CCC(=O)N3CCN(c4cc(C)ccc4C)CC3)n2)cc1
> 30 µM (inactive) |  | Cc1ccc(C)c(N2CCN(C(=O)CCc3nc(-c4ccccc4C(F)(F)F)no3)CC2)c1
> 30 µM (inactive) |  | Cc1ccc(C)c(N2CCN(C(=O)CCc3nc(-c4ccccc4)no3)CC2)c1
> 30 µM (inactive) |  | COc1ccc(-c2ccc(CCC(=O)N3CCN(c4cc(C)ccc4C)CC3)o2)cc1
